In patent publication US5840740A, “Aminosterol compounds and a method of treating infection using the aminosterol compounds” (priority 1995, dated 1998):
In brackets after ≈: the same amount, converted by molar mass. Entries after “also recorded” stand apart in the source; their conditions may differ. Like-named read-outs stand apart in the source and are kept apart here.

Experiments:
[1] = target: rabbit NHE3 (Oryctolagus cuniculus, UniProt P26432); settings: 10 μg/ml, acid preloaded
Method: For cells not acid-preloaded, the actual internal pH value was monitored as a function of time following addition of squalamine, with the results depicted in FIG. 1B.
PS120 fibroblasts transfected with rabbit NHE3 were grown and acid preloaded by exposure to 40 mM NH4 C1 as described above in conjunction with FIGS. 1A and 1B. Internal cellular pH changes expressed as the rate of pH recovery as a function of restored extracellular sodium ion concentration following exposure to 10 μg/ml of the compound were assayed with the fluorescent dye BCECF-AM as described above.

[2] = Arterial resistance / pressure in the rat; type: in vivo; settings: 30 minutes; noradrenaline 40 μg
Method: A 200-g rat was catheterized in the right carotid artery, and the compound was introduced over a ten-second period to a total dosage of 5 mg/kg.
At that time, 40 μg of noradrenaline was introduced.

[3] = tested on: Murine L1210 leukemia; test: Growth inhibition in vitro; type: cell-based; settings: 10 μg/ml
Description: (§1) As set forth in Table 7 below, all malignant tumors evaluated in tissue culture, endothelial cells and vascular smooth muscle cells were sensitive to inhibition. Thus, compound 1436 has application in the control of growth factor dependent proliferation of many types of tissue.

[4] = tested on: Human colon carcinoma HT29; test: Growth inhibition in vitro; type: cell-based; settings: 10 μg/ml
Description: as §1

[5] = tested on: Human microvascular endothelial cells; test: Growth inhibition in vitro; type: cell-based; settings: 10 μg/ml
Description: as §1

[6] = tested on: bovine pulmonary endothelial cells; test: Growth inhibition in vitro; type: cell-based; settings: 10 μg/ml
Description: as §1

[7] = tested on: Human melanoma WM 1617; test: Growth inhibition in vitro; type: cell-based; settings: 10 μg/ml
Description: as §1

[8] = tested on: Murine B16 melanoma; test: Growth inhibition in vitro; type: cell-based; settings: 10 μg/ml
Description: as §1

[9] = tested on: human umbilical venous endothelial cells; test: Growth inhibition in vitro; type: cell-based; settings: 10 μg/ml
Description: as §1

[10] = tested on: Human colon carcinoma SW948; test: Growth inhibition in vitro; type: cell-based; settings: 10 μg/ml
Description: as §1

[11] = tested on: Lewis lung carcinoma; test: Growth inhibition in vitro; type: cell-based; settings: 10 μg/ml
Description: as §1

[12] = tested on: Human coronary artery smooth muscle cells; test: Growth inhibition in vitro; type: cell-based; settings: 10 μg/ml
Description: as §1

[13] = tested on: Human ovarian carcinoma SKOV3; test: Growth inhibition in vitro; type: cell-based; settings: 10 μg/ml
Description: as §1

[14] = tested on: Xenopus laevis heart; test: Isolated frog heart beating ex vivo; settings: 10 μg/ml, room temperature; about one hour without compound
Method: To determine if compound 1436 has such utility, the following experiment was performed. The heart of a juvenile Xenopus laevis frog was dissected from the living animal. The heart was placed into a Petri dish containing Krebs-Ringer buffer with adrenaline 50 μg/ml, and examined with the naked eye. At room temperature, the heart continued beating in a coordinated fashion (atrial beat followed by ventricular beat) for about one hour. In the presence of 10 μg/ml of compound 1436, spontaneous beating persisted up to 24 hours.

[15] = tested on: chick embryo vitelline capillaries; test: Chick embryo vitelline capillary regression assay; type: in vivo; set-up: key to vascular reactivity (capillary regression): +: Vascular reactivity; 0: No vascular reactivity; +/-: Equivocal reactivity; settings: for vascular reactivity (capillary regression): 60 min; for Chick embryo diss. assay, Minimum Effective Concentration: Table II
Method: Using the chick embryo vitelline capillaries assay, compounds were tested for their ability to induce capillary regression. Each compound was applied in 0.1 ml of 15% Ficol 400 and PBS onto the embryo, and vascular regression was assessed after 60 minutes.
The 3-day chick embryo consists of an embryonic disc from which numerous vessels emerge and return, forming a "figure 8"-shaped structure--the embryo in the center with vascular loops extending outward over both poles. […] Following a lag period of around 15 minutes, the constriction of continuity between capillary and secondary vessels, generally on the "avenous" side, was observed. Continued pulsatile blood flow progressed, resulting in a "swelling" of the blind tube, followed by a pinching off of the remaining connection and formation of an enclosed vascular sac resembling a "blood island." This process progressed until only the largest vessels remained intact.

[16] = Growth and weight gain in mice; type: in vivo, mouse (C57B)
Method: Animals were dosed QTD (i.p.) starting on Day 1. […] Animals receiving 5 mg/kg QTD experienced about a 50% reduction in growth, compared to untreated controls, while animals receiving 1 mg/kg QTD were affected by about 10%. […] They appeared very much like hypophysectamized animals might appear.

[17] = Fasting blood glucose in mice; type: in vivo, mouse (male CD-1); settings: i.v.; in words
Method: To study the effect of steroid administrator or the NHE responsible for secretion of insulin, several of the aminosterols from shark liver were administered to fasting mice. Male CD-1 mice were assigned to one of four treatment groups. Whole blood glucose was tested using glucometer (Lifescan Glucometer II and One Touch test strips). Statistical analysis was via one-way analysis of variance (ANOVA) followed by subsequent Bonferonni's t-test.

[18] = tested on: human coronary artery smooth muscle; test: Proliferation of human coronary artery smooth muscle in vitro; type: cell-based; settings: in words (1436: about 11 μg/ml)
Description: Aminosterols of the invention may also have utility in inhibiting the growth factor mediated proliferation of smooth muscle within the artery. Following coronary angioplasty, reocclusion commonly occurs, secondary to reparative proliferation of the vascular smooth muscle within the wall of the surgically manipulated blood vessel. This process generally takes place over the course of 7-10 days. To evaluate whether an agent could prevent the growth factor mediated proliferation of smooth muscle within the artery, compound 1436 was evaluated in vitro for its effect on the proliferation of human coronary artery smooth muscle. Results for compound 1436 are shown in FIG. 13, and those for squalamine are shown in FIG. 14, with FIG. 15 being a composite logarithmic plot.

[19] = tested on: HIV; test: Inhibition of HIV replication (P-24 Elisa); type: cell-based; settings: 7 days
[20] = tested on: Xenopus tadpole; settings: stage 59-60, 10 μg/ml; for pharmacological response in tadpole: in words
[21] = Hematological profile in L1210-inoculated mice; settings: L1210 mice; cisplatin 8 mg/kg ip or compound 1436 10 mg/kg ip q4d
Description: C57B mice were inoculated with L1210 lymphoblastic leukemia cells at an inoculum that causes leukemia in 100% of animals.

[22] = tested on: B16 melanoma; test: B16 melanoma growth in C57B mice; type: in vivo, mouse; settings: squalamine 5 mg/kg/day; compound 1436 10 mg/kg/every 3 days
Method: The growth of B16 melanoma in C57B mice is dependent upon neovascularization.
Using the growth of B16 melanoma cells in C57B mice, a recognized model for the evaluation of inhibitors of angiogenesis on the growth of cancers, the effects of subcutaneous, intraperitoneal and oral administration of squalamine were evaluated.
In this model, there was observed little evidence of metastasis with or without treatment with chemotherapeutic agents.
Based on the idea that tumor growth involves both the clonal expansion of a malignant cell along with the development of a supporting vascular supply, a combination of compound 1436 with squalamine was tested to determine whether it would achieve a synergistic effect on solid tumor growth. This concept was evaluated in the B16 melanoma model.
Animals were implanted with B16 melanoma followed by treatment with compound 1436 or 1256 administered in a combined schedule or separately. […] Thus, a combination of these two compounds achieves a therapeutic benefit in tumors dependent on neovascularization that may prevent metastatic spread.

[23] = tested on: malignant tumors, endothelial cells and vascular smooth muscle cells; test: Inhibition of growth of a spectrum of cells; type: cell-based; settings: in words
Description: as §1

[24] = tested on: PHA-stimulated human lymphocytes; test: Inhibition of mitogen (PHA)-stimulated growth of human T-cells; type: cell-based; settings: in words; 10 μg/ml
Description: Results are tabulated below.

[25] = tested on: HM; test: HM MTT assay; type: cell-based; settings: Table II, Minimum Effective Concentration
[26] = tested on: S. aureus; test: Antibiotic activity (MIC); type: cell-based; settings: Staphylococcus aureus
[27] = Chemical stability; type: physicochemical

Chain of rabbit NHE3 (P26432 30-832): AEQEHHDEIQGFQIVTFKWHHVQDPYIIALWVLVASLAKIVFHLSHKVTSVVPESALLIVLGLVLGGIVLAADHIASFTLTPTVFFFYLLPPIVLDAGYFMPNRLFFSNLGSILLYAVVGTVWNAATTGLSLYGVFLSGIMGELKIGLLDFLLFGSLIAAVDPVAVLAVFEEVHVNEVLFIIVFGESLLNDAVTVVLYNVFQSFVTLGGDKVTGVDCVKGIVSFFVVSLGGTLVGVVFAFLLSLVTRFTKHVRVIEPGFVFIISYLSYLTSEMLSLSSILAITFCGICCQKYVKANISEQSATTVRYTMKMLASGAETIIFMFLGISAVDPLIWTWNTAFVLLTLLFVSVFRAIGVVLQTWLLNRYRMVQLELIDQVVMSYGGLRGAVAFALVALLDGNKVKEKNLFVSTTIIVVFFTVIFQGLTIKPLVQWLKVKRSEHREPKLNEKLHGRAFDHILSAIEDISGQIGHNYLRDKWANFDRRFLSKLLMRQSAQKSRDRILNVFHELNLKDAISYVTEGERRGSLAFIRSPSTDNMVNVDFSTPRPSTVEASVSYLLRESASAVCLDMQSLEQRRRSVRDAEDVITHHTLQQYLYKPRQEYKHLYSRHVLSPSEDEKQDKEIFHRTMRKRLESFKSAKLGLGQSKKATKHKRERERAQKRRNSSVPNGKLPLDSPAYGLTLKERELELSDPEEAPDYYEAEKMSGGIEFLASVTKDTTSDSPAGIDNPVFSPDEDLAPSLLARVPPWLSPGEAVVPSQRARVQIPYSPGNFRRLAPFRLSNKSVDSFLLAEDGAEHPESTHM

CC(C)[C@@H](CC[C@@H](C)[C@H]1CC[C@H]2[C@@H]3[C@H](O)C[C@H]4C[C@@H](NCCCNCCCCNCCCN)CC[C@]4(C)[C@H]3CC[C@]12C)OS(=O)(=O)O [Compound 1436]
inhibition of rabbit NHE3 [1]: inhibit rabbit NHE3 | inhibition of rabbit NHE3 ([1]; listed as compound 1436): inhibitor of NHE3 | duration / reversibility of arterial effect [2]: followed for 30 minutes, without significant change; also recorded: readily reversible by standard pharmacological practice | growth inhibition in vitro [3]: INHIBITED | growth inhibition in vitro [4]: INHIBITED | growth inhibition in vitro [5]: INHIBITED | growth inhibition in vitro [6]: INHIBITED | growth inhibition in vitro [7]: INHIBITED | growth inhibition in vitro [8]: INHIBITED | growth inhibition in vitro [9]: INHIBITED | growth inhibition in vitro [10]: INHIBITED | growth inhibition in vitro [11]: INHIBITED | growth inhibition in vitro [12]: INHIBITED | growth inhibition in vitro [13]: INHIBITED | persistence of spontaneous beating [14]: up to 24 hours | vascular reactivity (capillary regression) ([15]; 0.001 μg applied): +/- | vascular reactivity (capillary regression) ([15]; 0.01 μg applied): + | vascular reactivity (capillary regression) ([15]; 0.1 μg applied): + | vascular reactivity (capillary regression) ([15]; 1 μg applied): + | vascular reactivity (capillary regression) ([15]; 10 μg applied): + | Chick embryo diss. assay, Minimum Effective Concentration [15]: 1 µg | effect on chick embryo vessels / blood ([15]; in words): causes vitelline capillary regression with about the same potency as squalamine | effect on growth of mice ([16]; 1 mg/kg QTD i.p.): about 10% | reduction in growth of mice ([16]; 5 mg/kg QTD i.p.): ~50% | growth suppression in mice ([16]; 10 mg/kg QTD i.p., about 1 month): almost completely inhibited | clinical health of treated mice ([16]; QTD i.p.): all were active, normally proportioned, not-cachectic, and in excellent apparent clinical health | suppression of growth and weight gain ([16]; in words, QTD i.p.): suppresses both linear growth and weight gain in growing mice in a dose-dependent fashion; also recorded: suppresses the growth of mice in a dose-dependent fashion | hyperglycemia [17]: caused hyperglycemia in mice | growth suppression / viability of smooth muscle cells [18]: maintained in a quiescent state in the presence of this steroid at about 11 μg/ml without loss of viability; also recorded: suppress in vitro the growth of human coronary artery smooth muscle | P-24 Elisa ([19]; 0.5 μM): 40561 | P-24 Elisa ([19]; 1 μM): 7464 | P-24 Elisa ([19]; 5 μM): 3426 | P-24 Elisa ([19]; 10 μM): 421 | P-24 Elisa ([19]; 20 μM): 9 | time to death [20]: about 2 hours | pharmacological response in tadpole [20]: Gradual reduction in overall activity. Heart beat remained strong, suggesting nervous system depression. Melanocytes over head and tail began to swell, first exhibiting visibly distinct nuclei, followed by rupture into fragments. | RBC, Early Time [21]: 4.8 10^6 /mm^3 | RBC, Late Time [21]: 8.8 10^6 /mm^3 | WBC, Early Time [21]: 3.3 10^3 /mm^3 | WBC, Late Time [21]: 3.7 10^3 /mm^3 | effect on B16 tumor volume, single agent and combination [22]: no significant impact on tumor volume | growth inhibition of a broad spectrum of cells [23]: inhibit the growth of a very broad spectrum of cells | inhibition of blast transformation [24]: inhibited blast transformation most potently

CC(C)CCC[C@@H](C)[C@H]1CC[C@H]2[C@@H]3[C@H](O)C[C@H]4C[C@H](NCCCNCCCCN)CC[C@]4(C)[C@H]3CC[C@]12C [Compound 370]
Chick embryo diss. assay, Minimum Effective Concentration [15]: > 10 µg | minimal effective concentration [25]: 40 µg/mL | pharmacological response in tadpole [20]: pharmacologic activity similar to that seen for FX 3

CC(COS(=O)(=O)O)C(=O)CC[C@@H](C)[C@H]1CC[C@H]2[C@@H]3[C@H](O)C[C@H]4C[C@@H](NCCCNCCCCN)CC[C@]4(C)[C@H]3CC[C@]12C (stereo partly drawn)
MIC [26]: 8 µg/mL (≈ 12.5 µM)

CC(CCC(=O)C(C)(C)OS(=O)(=O)O)[C@H]1CCC2C3C(CC[C@@]21C)[C@@]1(C)CC[C@H](NCCCNCCCCN)C[C@@H]1C[C@H]3O (stereo partly drawn) [FX 1A]
stability in water [27]: undergo conversion to another molecule (FX 1B) rapidly in water
